This note sets out measurements from US20120245120A1, “ZINC SUCROSE OCTASULFATES, THEIR PREPARATION, AND PHARMACEUTICAL AND COSMETIC USES THEREOF” (PIERRE FABRE DERMO-COSMETIQUE, priority 2009, published 2012).

The test concerns keratinocyte cell lines HaCAT. Description: In vitro cell migration assay (Oris Cell Migration Assay kit). Type of test: cell-based, human. The note with it: for % activity/TGFβ / % activity/negative control / Average OD: HaCaT migration. On the set-up: Average OD: scale not given here. On the procedure: The purpose of this study was to assess the effect of zinc sucrose octasulfate on cell migration of keratinocyte cell lines HaCAT, using an Oris Cell Migration Assay Kit (Platypus Technologies). This study was carried out in comparison with potassium sucrose octasulfate, and sodium sucrose octasulfate.
Spontaneously immortalized human keratinocyte cell line HaCaT, frequently referred to in literature as a standard model.
The protocol used for the cell migration study is based on the use of a 96-well Oris Cell Migration Assay kit (Platypus Technologies-TEBU), providing miniaturization and quantification of this cell process.
The principle of this assay is to investigate the cell migration towards the centre of the well of a 96-well plate. A stopper is placed in some wells, in order to create a detection zone of 2 mm in diameter. Then the stoppers are removed after the cells have well adhered to the surface around them, thus allowing the cells to migrate towards the detection zone. The plates without the stoppers and with the active substances are incubated at 37° C. for 24 hours in DMEM 0% SVF. Following this, the amount of cells located in the zone where the stopper was, is analyzed, in order to assess cell migration. A mask restricts visualization and reading to cells located in this zone only. For each condition, the average for 4 to 8 wells is calculated.
The results are expressed as OD (proportional to the amount of migrated cells).
Percent activity with regard to the negative control is calculated as: […]
Percent activity with regard to TGFβ is calculated as: […]

[1] abbreviates: Experiment 1, 1 μM, 24 hours at 37° C., DMEM 0% SVF, OD proportional to amount of migrated cells.
The mark [2] stands for this setting: Experiment 2, 1 μM, 24 hours at 37° C., DMEM 0% SVF, OD proportional to amount of migrated cells.
The mark [3] stands for this setting: summary statement, no concentration given.
Where [4] appears, read: Experiment 1, 5 ng/mL, 24 hours, positive control.
The mark [5] stands for this setting: Experiment 2, 5 ng/mL, 24 hours, positive control.

For `O=S(=O)([O-])OC[C@H]1O[C@@](COS(=O)(=O)[O-])(O[C@H]2O[C@H](COS(=O)(=O)[O-])[C@@H](OS(=O)(=O)[O-])[C@H](OS(=O)(=O)[O-])[C@H]2OS(=O)(=O)[O-])[C@@H](OS(=O)(=O)[O-])[C@@H]1OS(=O)(=O)[O-].[K+].[K+].[K+].[K+].[K+].[K+].[K+].[K+]` [SOS-K, Potassium sucrose octasulfate], the “% activity/TGFβ” value runs as follows: (Experiment 1, 1 μM, 24 hours) 6.9%; (Experiment 2, 1 μM, 24 hours) 42.2%. Moreover, the “% activity/negative control” value is, setting by setting: (Experiment 1, 1 μM, 24 hours) 113.5%; (Experiment 2, 1 μM, 24 hours) 135.3%. The “Average OD” value is, setting by setting: under setting [1], 99.5; under setting [2], 321.3. Also, the “induction of keratinocyte migration (in words)” value (from here on “induction”) (at the concentrations tested) is on record as “do not induce keratinocyte migration” and the “induction” value under setting [3] is “do not induce cell migration”.
As for zinc sucrose octasulfate [SOS-Zn], the “activity compared with the positive control TGFβ (in words)” value (1 μM vs TGFβ 5 ng/mL) was “as active as the positive control TGFβ”. Also, the “induction” value by setting is: (1 μM, both experiments) “induces cell migration reproducibly”; under setting [3], “induces keratinocyte migration”. Besides, the “% activity/TGFβ” value reads like this: (Experiment 1, 1 μM, 24 hours) 128.3%; (Experiment 2, 1 μM, 24 hours) 90.7%. Besides, the “% activity/negative control” value reads like this: (Experiment 1, 1 μM, 24 hours) 350.0%; (Experiment 2, 1 μM, 24 hours) 176.0%. Also, the “Average OD” value is recorded as 306.9 under setting [1] and 417.8 under setting [2].
Consider “TGFβ: Positive control: TGFβ1, polypeptide growth factor”, for which, under “5 ng/mL, both experiments, positive control”, the “induction” value is reported as “induces keratinocyte migration reproducibly”. Under setting [4], the “% activity/negative control” value is 294.9% and the “Average OD” value was 258.6. Also, under setting [5], the “% activity/negative control” value is listed as 183.8% and the “Average OD” value is on record as 436.3.
Turning to `O=S(=O)([O-])OC[C@H]1O[C@@](COS(=O)(=O)[O-])(O[C@H]2O[C@H](COS(=O)(=O)[O-])[C@@H](OS(=O)(=O)[O-])[C@H](OS(=O)(=O)[O-])[C@H]2OS(=O)(=O)[O-])[C@@H](OS(=O)(=O)[O-])[C@@H]1OS(=O)(=O)[O-].[Na+].[Na+].[Na+].[Na+].[Na+].[Na+].[Na+].[Na+]` [SOS-Na, Sodium sucrose octasulfate], the “% activity/TGFβ” value is, setting by setting: (Experiment 1, 1 μM, 24 hours) −34.6%; (Experiment 2, 1 μM, 24 hours) −47.1%. Further, the “% activity/negative control” value (Experiment 1, 1 μM, 24 hours) is 32.6% and the “% activity/negative control” value (Experiment 2, 1 μM, 24 hours) worked out at 59.9%. The “Average OD” value runs as follows: under setting [1], 28.6; under setting [2], 142.3. Moreover, the “induction” value was “do not induce keratinocyte migration” (at the concentrations tested) and “do not induce cell migration” under setting [3].
